Test results as given in US20230357179A1, “RAF KINASE INHIBITORS AND METHODS OF USE THEREOF” (Deciphera Pharmaceuticals, LLC, priority 2021, published 2023).

These compounds were tested against T1, A-Raf kinase (Homo sapiens, UniProt P10398, Y301D/Y302D) (assay: Biochemical assay for A-Raf.1 (coupled pyruvate kinase/lactate dehydrogenase)). Conditions: read-out: ARAF.1 IC50.
T1 construct: purchased Sigma
How it was run: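 IC50 values came from four-parameter sigmoidal fits of percent inhibition, using rates over the 4 to 5 h window of continuous A340 readings (6 h, 30° C). The coupled PK/LDH system tracked NADH oxidation during 5.55 nM A-Raf activity on 30.1 nM MEK at 1 mM ATP, buffer pH 7.5.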

T1 sequence (P10398 with tags, fused parts or gaps Y301D/Y302D): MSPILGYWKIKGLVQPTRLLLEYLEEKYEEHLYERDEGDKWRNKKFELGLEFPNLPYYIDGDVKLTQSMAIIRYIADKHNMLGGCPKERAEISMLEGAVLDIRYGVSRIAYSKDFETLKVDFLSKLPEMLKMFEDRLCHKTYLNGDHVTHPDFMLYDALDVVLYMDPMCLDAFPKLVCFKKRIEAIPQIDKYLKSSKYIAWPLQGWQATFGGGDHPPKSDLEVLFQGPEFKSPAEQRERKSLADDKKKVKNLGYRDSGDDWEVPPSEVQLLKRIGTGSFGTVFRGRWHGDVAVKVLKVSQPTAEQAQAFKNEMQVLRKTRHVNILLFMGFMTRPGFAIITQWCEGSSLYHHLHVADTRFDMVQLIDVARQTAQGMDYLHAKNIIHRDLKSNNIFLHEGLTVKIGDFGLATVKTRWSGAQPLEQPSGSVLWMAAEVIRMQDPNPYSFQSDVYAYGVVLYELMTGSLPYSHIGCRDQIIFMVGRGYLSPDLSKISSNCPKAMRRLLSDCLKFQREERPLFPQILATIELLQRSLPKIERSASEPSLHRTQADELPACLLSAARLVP

Row | SMILES | IC50
1 | COC(C)(C)CCNC(=O)Nc1ccc(C)c(-c2cc(-c3cnn(C)c3)nc(N3CCOCC3)c2)c1 [Example 38] | > 1000 nM
2 | Cc1ccc(NC(=O)Nc2cn(C)nc2C(F)(F)F)cc1-c1cc(OCCO)nc(N2CCOCC2)c1 [Example 42] | > 1000 nM
3 | Cc1ccc(NC(=O)Nc2cnc(C(F)(F)F)s2)cc1-c1cc(OCCO)nc(N2CCOCC2)c1 [Example 43] | > 1000 nM
4 | CC(=O)Nc1cc(-c2cc(-c3cc(NC(=O)NC4CC(C)(C)C4)c(F)cc3C)cc(OCCO)n2)ccn1 [Example 47] | 100 to 500 nM
5 | CC(=O)Nc1cc(-c2cc(-c3cc(NC(=O)Nc4ccc(C(F)(F)F)cc4)cnc3C)ccn2)ccn1 [Example 48] | > 1000 nM
6 | CC(=O)Nc1cc(-c2cc(-c3cc(NC(=O)N[C@H]4C[C@](C)(F)C4)ccc3C)cc(OCCO)n2)ccn1 [Example 49] | 100 to 500 nM
7 | Cc1ccc(NC(=O)N[C@H]2C[C@](C)(F)C2)cc1-c1cc(OCCO)nc(-c2ccnc(NC(=O)CN(C)C)c2)c1 [Example 50] | > 1000 nM
8 | CC(=O)Nc1cc(-c2cc(-c3cc(NC(=O)NCCC4(C)CC4)c(F)cc3C)cc(C3CC3)n2)ccn1 [Example 51] | > 1000 nM
9 | CC(=O)Nc1cc(-c2cc(-c3cc(NC(=O)NCC45CC(F)(C4)C5)c(F)cc3C)cc(OCCO)n2)ccn1 [Example 52] | > 1000 nM
10 | CC(=O)Nc1cc(-c2cc(-c3cc(NC(=O)NC4CCCCC4)c(F)cc3C)cc(OCCO)n2)ccn1 [Example 53] | 100 to 500 nM

Now from value to compound:

Row | IC50 | SMILES
11 | > 1000 nM | CC(=O)Nc1cc(-c2cc(-c3cc(NC(=O)NCCC4(C(F)(F)F)CC4)c(F)cc3C)cc(C3CC3)n2)ccn1 [Example 54]
12 | 100 to 500 nM | CC(=O)Nc1cc(-c2cc(-c3cc(NC(=O)NCCC4(C)CC4)c(F)cc3C)cc(C)n2)ccn1 [Example 55]
13 | 500 to 1000 nM | CC(=O)Nc1cc(-c2cc(-c3cc(NC(=O)NCCC4(C)CC4)ccc3C)cc(N3CCOCC3)n2)ccn1 [Example 57]
14 | 100 to 500 nM | CC(=O)Nc1cc(-c2cc(-c3cc(NC(=O)NCCC(C)(C)C#N)c(F)cc3C)cc(C3CC3)n2)ccn1 [Example 59]
15 | > 1000 nM | COC(C)(C)CCNC(=O)Nc1ccc(C)c(-c2cc(-c3ccnc(NC(C)=O)c3)n(C)c(=O)c2)c1 [Example 60]
16 | > 1000 nM | Cc1ccc(NC(=O)N[C@H]2C[C@](C)(F)C2)cc1-c1cc(-c2ccnc(NC(=O)C3CC3)c2)nc(C2CC2)c1 [Example 61]

These compounds were tested against T2, C-Raf kinase (Homo sapiens, UniProt P04049, Y340D/Y341D) (assay: Biochemical assay for C-Raf.1 (coupled pyruvate kinase/lactate dehydrogenase)). Conditions: read-out: CRAF.1 IC50.
T2 construct: Y340D,; GST (N); purchased Sigma
How it was run: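 NADH depletion at 340 nm monitored continuously for 6 h at 30° C, with rates taken over 4–5 h. The coupled pyruvate kinase/lactate dehydrogenase reaction used 1 mM ATP, 30.1 nM MEK substrate and 0.43 nM kinase at pH 7.5. IC50 was fitted sigmoidally from percent inhibition of serially diluted compound.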

T2 sequence (P04049 307-648 Y340D/Y341D): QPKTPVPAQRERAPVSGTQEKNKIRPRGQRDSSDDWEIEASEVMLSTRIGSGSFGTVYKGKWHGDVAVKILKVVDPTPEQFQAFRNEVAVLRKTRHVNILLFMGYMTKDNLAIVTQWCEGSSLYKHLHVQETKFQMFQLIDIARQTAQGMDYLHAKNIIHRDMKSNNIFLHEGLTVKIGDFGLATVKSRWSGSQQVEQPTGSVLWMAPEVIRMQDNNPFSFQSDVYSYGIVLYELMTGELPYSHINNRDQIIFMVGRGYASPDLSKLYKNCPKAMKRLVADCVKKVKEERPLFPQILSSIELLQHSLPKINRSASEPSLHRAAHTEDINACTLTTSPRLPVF

Row | SMILES | IC50
17 | COC(C)(C)CCNC(=O)Nc1ccc(C)c(-c2cc(-c3cnn(C)c3)nc(N3CCOCC3)c2)c1 [Example 38] | ≤ 100 nM
18 | Cc1ccc(NC(=O)Nc2cn(C)nc2C(F)(F)F)cc1-c1cc(OCCO)nc(N2CCOCC2)c1 [Example 42] | > 1000 nM
19 | Cc1ccc(NC(=O)Nc2cnc(C(F)(F)F)s2)cc1-c1cc(OCCO)nc(N2CCOCC2)c1 [Example 43] | ≤ 100 nM
20 | CC(=O)Nc1cc(-c2cc(-c3cc(NC(=O)NC4CC(C)(C)C4)c(F)cc3C)cc(OCCO)n2)ccn1 [Example 47] | ≤ 100 nM
21 | CC(=O)Nc1cc(-c2cc(-c3cc(NC(=O)Nc4ccc(C(F)(F)F)cc4)cnc3C)ccn2)ccn1 [Example 48] | ≤ 100 nM
22 | CC(=O)Nc1cc(-c2cc(-c3cc(NC(=O)N[C@H]4C[C@](C)(F)C4)ccc3C)cc(OCCO)n2)ccn1 [Example 49] | ≤ 100 nM
23 | Cc1ccc(NC(=O)N[C@H]2C[C@](C)(F)C2)cc1-c1cc(OCCO)nc(-c2ccnc(NC(=O)CN(C)C)c2)c1 [Example 50] | ≤ 100 nM
24 | CC(=O)Nc1cc(-c2cc(-c3cc(NC(=O)NCCC4(C)CC4)c(F)cc3C)cc(C3CC3)n2)ccn1 [Example 51] | ≤ 100 nM
25 | CC(=O)Nc1cc(-c2cc(-c3cc(NC(=O)NCC45CC(F)(C4)C5)c(F)cc3C)cc(OCCO)n2)ccn1 [Example 52] | ≤ 100 nM
26 | CC(=O)Nc1cc(-c2cc(-c3cc(NC(=O)NC4CCCCC4)c(F)cc3C)cc(OCCO)n2)ccn1 [Example 53] | ≤ 100 nM

Further lines, results first:

Row | IC50 | SMILES
27 | ≤ 100 nM | CC(=O)Nc1cc(-c2cc(-c3cc(NC(=O)NCCC4(C(F)(F)F)CC4)c(F)cc3C)cc(C3CC3)n2)ccn1 [Example 54]
28 | ≤ 100 nM | CC(=O)Nc1cc(-c2cc(-c3cc(NC(=O)NCCC4(C)CC4)c(F)cc3C)cc(C)n2)ccn1 [Example 55]
29 | ≤ 100 nM | CC(=O)Nc1cc(-c2cc(-c3cc(NC(=O)NCCC4(C)CC4)ccc3C)cc(N3CCOCC3)n2)ccn1 [Example 57]
30 | ≤ 100 nM | CC(=O)Nc1cc(-c2cc(-c3cc(NC(=O)NCCC(C)(C)C#N)c(F)cc3C)cc(C3CC3)n2)ccn1 [Example 59]
31 | 100 to 500 nM | COC(C)(C)CCNC(=O)Nc1ccc(C)c(-c2cc(-c3ccnc(NC(C)=O)c3)n(C)c(=O)c2)c1 [Example 60]
32 | ≤ 100 nM | Cc1ccc(NC(=O)N[C@H]2C[C@](C)(F)C2)cc1-c1cc(-c2ccnc(NC(=O)C3CC3)c2)nc(C2CC2)c1 [Example 61]

What follows are compounds tested against T3, B-Raf (V600E) kinase (Homo sapiens, UniProt P15056, V600E) (assay: Biochemical assay for B-Raf (V600E).1 (coupled pyruvate kinase/lactate dehydrogenase)). Conditions: read-out: BRAF V600E.1 IC50.
T3 construct: B-Raf (V600E) residues 416-766 with a; GST (N); purchased SignalChem
How it was run: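 IC50 came from four-parameter sigmoidal fits of percent inhibition, using reaction rates over 3-4 h. Continuous A340 reading (6 h, 30 °C) of a pyruvate kinase/lactate dehydrogenase-coupled reaction: B-Raf V600E 0.03 nM, MEK 30.1 nM, ATP 1 mM, Tris pH 7.5, 1% DMSO.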

T3 sequence (P15056 416-766 V600E): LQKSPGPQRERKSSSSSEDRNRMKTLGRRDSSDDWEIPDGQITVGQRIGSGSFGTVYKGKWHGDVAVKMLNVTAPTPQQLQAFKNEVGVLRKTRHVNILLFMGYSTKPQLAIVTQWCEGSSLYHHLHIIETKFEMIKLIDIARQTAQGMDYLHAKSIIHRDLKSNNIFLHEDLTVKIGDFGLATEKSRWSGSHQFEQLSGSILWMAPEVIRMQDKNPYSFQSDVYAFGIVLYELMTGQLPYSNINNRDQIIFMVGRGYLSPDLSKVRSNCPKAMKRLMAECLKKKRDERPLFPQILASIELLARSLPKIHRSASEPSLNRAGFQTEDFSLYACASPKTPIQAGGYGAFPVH

Row | SMILES | IC50
33 | COC(C)(C)CCNC(=O)Nc1ccc(C)c(-c2cc(-c3cnn(C)c3)nc(N3CCOCC3)c2)c1 [Example 38] | ≤ 100 nM
34 | Cc1ccc(NC(=O)Nc2cn(C)nc2C(F)(F)F)cc1-c1cc(OCCO)nc(N2CCOCC2)c1 [Example 42] | ≤ 100 nM
35 | Cc1ccc(NC(=O)Nc2cnc(C(F)(F)F)s2)cc1-c1cc(OCCO)nc(N2CCOCC2)c1 [Example 43] | ≤ 100 nM
36 | CC(=O)Nc1cc(-c2cc(-c3cc(NC(=O)NC4CC(C)(C)C4)c(F)cc3C)cc(OCCO)n2)ccn1 [Example 47] | ≤ 100 nM
37 | CC(=O)Nc1cc(-c2cc(-c3cc(NC(=O)Nc4ccc(C(F)(F)F)cc4)cnc3C)ccn2)ccn1 [Example 48] | ≤ 100 nM
38 | CC(=O)Nc1cc(-c2cc(-c3cc(NC(=O)N[C@H]4C[C@](C)(F)C4)ccc3C)cc(OCCO)n2)ccn1 [Example 49] | ≤ 100 nM
39 | Cc1ccc(NC(=O)N[C@H]2C[C@](C)(F)C2)cc1-c1cc(OCCO)nc(-c2ccnc(NC(=O)CN(C)C)c2)c1 [Example 50] | ≤ 100 nM
40 | CC(=O)Nc1cc(-c2cc(-c3cc(NC(=O)NCCC4(C)CC4)c(F)cc3C)cc(C3CC3)n2)ccn1 [Example 51] | ≤ 100 nM
41 | CC(=O)Nc1cc(-c2cc(-c3cc(NC(=O)NCC45CC(F)(C4)C5)c(F)cc3C)cc(OCCO)n2)ccn1 [Example 52] | ≤ 100 nM
42 | CC(=O)Nc1cc(-c2cc(-c3cc(NC(=O)NC4CCCCC4)c(F)cc3C)cc(OCCO)n2)ccn1 [Example 53] | ≤ 100 nM

Continued, values first:

Row | IC50 | SMILES
43 | ≤ 100 nM | CC(=O)Nc1cc(-c2cc(-c3cc(NC(=O)NCCC4(C(F)(F)F)CC4)c(F)cc3C)cc(C3CC3)n2)ccn1 [Example 54]
44 | ≤ 100 nM | CC(=O)Nc1cc(-c2cc(-c3cc(NC(=O)NCCC4(C)CC4)c(F)cc3C)cc(C)n2)ccn1 [Example 55]
45 | ≤ 100 nM | CC(=O)Nc1cc(-c2cc(-c3cc(NC(=O)NCCC4(C)CC4)ccc3C)cc(N3CCOCC3)n2)ccn1 [Example 57]
46 | ≤ 100 nM | CC(=O)Nc1cc(-c2cc(-c3cc(NC(=O)NCCC(C)(C)C#N)c(F)cc3C)cc(C3CC3)n2)ccn1 [Example 59]
47 | ≤ 100 nM | COC(C)(C)CCNC(=O)Nc1ccc(C)c(-c2cc(-c3ccnc(NC(C)=O)c3)n(C)c(=O)c2)c1 [Example 60]
48 | ≤ 100 nM | Cc1ccc(NC(=O)N[C@H]2C[C@](C)(F)C2)cc1-c1cc(-c2ccnc(NC(=O)C3CC3)c2)nc(C2CC2)c1 [Example 61]

The compounds below were run on Miapaca-2 cells (assay: MiaPaca-2 cell proliferation assay (1), resazurin, 96-well). Conditions: Homo sapiens, MIA PaCa-2, inhibition of cell proliferation.
Assay type: cell-based
How it was run: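 Three thousand cells per well in DMEM with 10% FBS and 2.5% horse serum exposed to serially diluted compound in triplicate for 67-72 h at 37 °C, 5% CO2. Viability by resazurin (additional 5-6 h), fluorescence ex 540/em 600 nm; IC50 calculated.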

Row | SMILES | IC50
49 | COC(C)(C)CCNC(=O)Nc1ccc(C)c(-c2cc(-c3cnn(C)c3)nc(N3CCOCC3)c2)c1 [Example 38] | 1000 to 10000 nM
50 | Cc1ccc(NC(=O)Nc2cn(C)nc2C(F)(F)F)cc1-c1cc(OCCO)nc(N2CCOCC2)c1 [Example 42] | 1000 to 10000 nM
51 | Cc1ccc(NC(=O)Nc2cnc(C(F)(F)F)s2)cc1-c1cc(OCCO)nc(N2CCOCC2)c1 [Example 43] | 100 to 500 nM
52 | CC(=O)Nc1cc(-c2cc(-c3cc(NC(=O)NC4CC(C)(C)C4)c(F)cc3C)cc(OCCO)n2)ccn1 [Example 47] | 500 to 1000 nM
53 | CC(=O)Nc1cc(-c2cc(-c3cc(NC(=O)Nc4ccc(C(F)(F)F)cc4)cnc3C)ccn2)ccn1 [Example 48] | 1000 to 10000 nM
54 | CC(=O)Nc1cc(-c2cc(-c3cc(NC(=O)N[C@H]4C[C@](C)(F)C4)ccc3C)cc(OCCO)n2)ccn1 [Example 49] | 1000 to 10000 nM
55 | Cc1ccc(NC(=O)N[C@H]2C[C@](C)(F)C2)cc1-c1cc(OCCO)nc(-c2ccnc(NC(=O)CN(C)C)c2)c1 [Example 50] | 1000 to 10000 nM
56 | CC(=O)Nc1cc(-c2cc(-c3cc(NC(=O)NCCC4(C)CC4)c(F)cc3C)cc(C3CC3)n2)ccn1 [Example 51] | 1000 to 10000 nM
57 | CC(=O)Nc1cc(-c2cc(-c3cc(NC(=O)NCC45CC(F)(C4)C5)c(F)cc3C)cc(OCCO)n2)ccn1 [Example 52] | 1000 to 10000 nM
58 | CC(=O)Nc1cc(-c2cc(-c3cc(NC(=O)NC4CCCCC4)c(F)cc3C)cc(OCCO)n2)ccn1 [Example 53] | 500 to 1000 nM

More lines, now with the values ahead:

Row | IC50 | SMILES
59 | 1000 to 10000 nM | CC(=O)Nc1cc(-c2cc(-c3cc(NC(=O)NCCC4(C(F)(F)F)CC4)c(F)cc3C)cc(C3CC3)n2)ccn1 [Example 54]
60 | 1000 to 10000 nM | CC(=O)Nc1cc(-c2cc(-c3cc(NC(=O)NCCC4(C)CC4)c(F)cc3C)cc(C)n2)ccn1 [Example 55]
61 | 1000 to 10000 nM | CC(=O)Nc1cc(-c2cc(-c3cc(NC(=O)NCCC4(C)CC4)ccc3C)cc(N3CCOCC3)n2)ccn1 [Example 57]
62 | 1000 to 10000 nM | CC(=O)Nc1cc(-c2cc(-c3cc(NC(=O)NCCC(C)(C)C#N)c(F)cc3C)cc(C3CC3)n2)ccn1 [Example 59]
63 | 1000 to 10000 nM | COC(C)(C)CCNC(=O)Nc1ccc(C)c(-c2cc(-c3ccnc(NC(C)=O)c3)n(C)c(=O)c2)c1 [Example 60]
64 | 1000 to 10000 nM | Cc1ccc(NC(=O)N[C@H]2C[C@](C)(F)C2)cc1-c1cc(-c2ccnc(NC(=O)C3CC3)c2)nc(C2CC2)c1 [Example 61]
